# From the supplement of paper PMC5303821, “Major sulfonate transporter Soa1 in Saccharomyces cerevisiae and considerable substrate diversity in its fungal family” (Nature Communications, 2017)
# Columns and labels:
# Conditions in all cases: sulfur source concentration 200 µM; S. cerevisiae S288C/BY sul1Δ sul2Δ soa1Δ with transporter ortholog inserted at SOA1 locus; sulfur-free B medium, 4% glucose, pH 6.5, sole sulfur source
# [1] = test system: Metarhizium robertsii_XP_007822519; assay: lag phase before growth; higher = slower start of growth
# [2] = test system: Ogataea parapolymorpha_XP_013935289; assay: as above
# [3] = test system: Saccharomyces cerevisiae_SOA1; assay: as above
# [4] = test system: Saccharomyces eubayanus_SOA1; assay: as above
# [5] = test system: Saccharomyces uvarum_SOA1; assay: as above
# [6] = test system: Saccharomyces uvarum_SOA2; assay: as above
# [7] = test system: Aspergillus nidulans (IAM 2006)_astA; assay: maximal culture density with compound as sole sulfur source (OD600); higher = better growth
# [8] = test system: Aspergillus nidulans_CBF74694; assay: as above
# [9] = test system: Aspergillus nidulans_CBF80346; assay: as above
# [10] = test system: Aspergillus nidulans_XP_660563; assay: as above
# [11] = test system: Aspergillus nidulans_XP_660670; assay: as above
# [12] = test system: Aspergillus nidulans_XP_661711; assay: as above
# [13] = test system: Aspergillus nidulans_XP_661733; assay: as above
# [14] = test system: Aspergillus nidulans_XP_681611; assay: as above
# [15] = test system: Fusarium oxysporum_ENH65823; assay: as above
# [16] = test system: Metarhizium robertsii_XP_007821441; assay: as above
# [17] = test system: Metarhizium robertsii_XP_007822519; assay: as above
# [18] = test system: Metarhizium robertsii_XP_007823832; assay: as above
# [19] = test system: Ogataea parapolymorpha_XP_013932458; assay: as above
# [20] = test system: Ogataea parapolymorpha_XP_013935289; assay: as above
# [21] = test system: Ogataea parapolymorpha_XP_013936897; assay: as above
# [22] = test system: Saccharomyces cerevisiae_SOA1; assay: as above
# [23] = test system: Saccharomyces eubayanus_SOA1; assay: as above
# [24] = test system: Saccharomyces eubayanus_SOA2; assay: as above
# [25] = test system: Saccharomyces uvarum_SOA1; assay: as above
# [26] = test system: Saccharomyces uvarum_SOA2; assay: as above
# soa1 del = assay: as above
# [27] = test system: Aspergillus nidulans (IAM 2006)_astA; assay: maximal growth rate with compound as sole sulfur source (OD600 per h); higher = better growth / uptake of the sulfur source
# [28] = test system: Aspergillus nidulans_CBF80346; assay: as above
# [29] = test system: Metarhizium robertsii_XP_007821441; assay: as above
# [30] = test system: Metarhizium robertsii_XP_007822519; assay: as above
# [31] = test system: Metarhizium robertsii_XP_007823832; assay: as above
# [32] = test system: Ogataea parapolymorpha_XP_013935289; assay: as above
# [33] = test system: Ogataea parapolymorpha_XP_013936897; assay: as above
# [34] = test system: Saccharomyces eubayanus_SOA1; assay: as above
# [35] = test system: Saccharomyces uvarum_SOA1; assay: as above
compound,measurement,setting,value
CCCS(=O)(=O)O [Propanesulfonate],lag phase before growth,[1],21.1 h
same,lag phase before growth,[2],10.8 h
same,lag phase before growth,[3],15.7 h
same,lag phase before growth,[4],11.9 h
same,lag phase before growth,[5],11.1 h
same,lag phase before growth,[6],19 h
same,maximal culture density,[7],0.486
same,maximal culture density,[8],0.192
same,maximal culture density,[9],0.212
same,maximal culture density,[10],0.327
same,maximal culture density,[11],0.231
same,maximal culture density,[12],0.232
same,maximal culture density,[13],0.249
same,maximal culture density,[14],0.35
same,maximal culture density,[15],0.232
same,maximal culture density,[16],0.263
same,maximal culture density,[17],1.88
same,maximal culture density,[18],0.507
same,maximal culture density,[19],0.243
same,maximal culture density,[20],1.59
same,maximal culture density,[21],0.296
same,maximal culture density,[22],1.6
same,maximal culture density,[23],1.56
same,maximal culture density,[24],1.7
same,maximal culture density,[25],1.56
same,maximal culture density,[26],1.69
same,maximal culture density,soa1 del,0.212
same,maximal growth rate,[27],0.0176
same,maximal growth rate,[28],0.00331
same,maximal growth rate,[29],0.0026
same,maximal growth rate,[30],0.0162
same,maximal growth rate,[31],0.0143
same,maximal growth rate,[32],0.0825
same,maximal growth rate,[33],0.00486
same,maximal growth rate,[34],0.0691
same,maximal growth rate,[35],0.0748
